Test results taken from patent US20260055441A1, “A PCR-ELISA ANALOGOUS ANTIBODY-FREE METHOD FOR DETECTING A TARGET NUCLEIC ACID IN A SAMPLE” (UNIVERSITÄT HEIDELBERG, priority 2022, published 2026).
Residues, ends and D or L forms follow the SMILES beside them. *: point of attachment. AMC = Cc1cc(=O)oc2cc(N*)ccc12; Cbz = O=C(OCc1ccccc1)*

Experiments:
papain [1] = target: T1, papain (Carica papaya, UniProt P00784); settings: literature (Whitesides group; Lukesh et al., 2012); cited from earlier work
T1 sequence (P00784 134-345): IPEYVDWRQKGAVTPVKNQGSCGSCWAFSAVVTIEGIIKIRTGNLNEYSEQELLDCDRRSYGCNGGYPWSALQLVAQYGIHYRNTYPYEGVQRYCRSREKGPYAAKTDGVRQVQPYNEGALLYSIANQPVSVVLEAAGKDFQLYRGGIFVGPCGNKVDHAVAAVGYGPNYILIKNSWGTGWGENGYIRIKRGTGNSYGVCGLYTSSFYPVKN

latent papain = target: T2, latent papain (Carica papaya, UniProt P00784); experiment: Latent papain reactivation with selenium/thiol activators in presence of TCEP, rates normalized to blank (FIG. 22); assay type: biochemical; settings: latent papain 1 nM
T2 construct: purchased Sigma Aldrich (Munich, Germany); host or cells: Papaya latex (natural source)
T2 sequence (P00784 134-345): T1 sequence (P00784 134-345)
Method: To this end, cysteine ethyl ester, DTT, DTBA (9) and SeDTBA (11) were chosen for a direct comparison. […] The resulting reaction rates were normalized against the background activity and the resulting normalized rates are presented in FIG. 22 for the concentration range of 50 pM-100 nM.
Different assays of reactivating latent papain in solution were conducted in the course of this work. Various buffer compositions, supplements, 96 well plates, substrates, activators, concentrations as well as different latent papain forms were compared. In order to get an overview of all experiments, a standard method is described in the following and variations of this method are subsequently defined. First, the well buffer was prepared (0.1 M phosphate buffer pH 7, 4 mM EDTA, 0.01% Brij35). A 1 mM TCEP solution was prepared with 3 mM NaOH in 0.1 M Tris-HCl buffer pH 8. Papain substrate (Z-Phe-Arg-AMC or Suc-Leu-Leu-Val-Tyr-AMC) was prepared as a 200 μM solution in water and transferred equally to a PCR strip. Three serial dilutions of the activating agent with well buffer were used in the different experiments and the corresponding pipetting schemes are shown in Table 9. Papain was diluted to 0.1 μM with well buffer and transferred equally to a PCR strip. […] After mixing, 30 μL of the prepared activator concentrations (see Table 9) were added and mixed. In the last step, 3.8 μL of the substrate solution was added and mixed, to yield a final well composition of 0.1 M phosphate buffer pH 7, 1 nM papain, 2 μM substrate, activator (see Table 9), 4 mM EDTA, 0.01% Brij35 and 1 μM TCEP. For experiments with only one activator concentration of 10 μM, the transferred well buffer for each well was 368.6 μL, followed by 3.8 μL of papain, substrate and activator (1 mM in well buffer) respectively.

latent papain P13 = target: T3, latent papain P13 (Carica papaya, UniProt P00784); experiment: Screening of peptide-based papain activators, rates normalized to cysteine ethyl ester (FIG. 19, FIG. 20); assay type: biochemical
T3 construct: purchased Sigma Aldrich (Munich, Germany); host or cells: Papaya latex (natural source)
T3 sequence (P00784 134-345): T1 sequence (P00784 134-345)
Method: L-Cysteine ethyl ester was utilized in identical peptide concentrations as a standard in order to calculate normalized reaction rates for each synthesized peptide.
[…] The assays were conducted in well buffer with 1 nM latent papain P13. In order to give a clear overview, only the normalized rates for activator concentrations of 50 nM are depicted and compared.
Additionally, 1 μM TCEP was added to each well of the cysteine concentration series in order to examine the influence of TCEP on reaction rates of thiols.
Different assays of reactivating latent papain in solution were conducted in the course of this work. Various buffer compositions, supplements, 96 well plates, substrates, activators, concentrations as well as different latent papain forms were compared. In order to get an overview of all experiments, a standard method is described in the following and variations of this method are subsequently defined. First, the well buffer was prepared (0.1 M phosphate buffer pH 7, 4 mM EDTA, 0.01% Brij35). A 1 mM TCEP solution was prepared with 3 mM NaOH in 0.1 M Tris-HCl buffer pH 8. Papain substrate (Z-Phe-Arg-AMC or Suc-Leu-Leu-Val-Tyr-AMC) was prepared as a 200 μM solution in water and transferred equally to a PCR strip. Three serial dilutions of the activating agent with well buffer were used in the different experiments and the corresponding pipetting schemes are shown in Table 9. Papain was diluted to 0.1 μM with well buffer and transferred equally to a PCR strip. […] 342.4 μL of TCEP containing well buffer was transferred to each well, followed by 3.8 μL papain solution. After mixing, 30 μL of the prepared activator concentrations (see Table 9) were added and mixed. In the last step, 3.8 μL of the substrate solution was added and mixed, to yield a final well composition of 0.1 M phosphate buffer pH 7, 1 nM papain, 2 μM substrate, activator (see Table 9), 4 mM EDTA, 0.01% Brij35 and 1 μM TCEP. For experiments with only one activator concentration of 10 μM, the transferred well buffer for each well was 368.6 μL, followed by 3.8 μL of papain, substrate and activator (1 mM in well buffer) respectively.

[2] = Jacob et al., 2003; cited from earlier work
papain [3] = target: T1, papain; settings: Ménard et al. 1990; cited from earlier work
[4] = Huber et al. 1967; cited from earlier work
H2N-CFR-CONH2 = target: T4, H2N-CFR-CONH2
T4 chain: CFR

H2N-CLR-CONH2 = target: T5, H2N-CLR-CONH2
T5 chain: CLR

[5] = target: T6, dU-triazole-PEG3-ULR dimer (21) (not fully specified)
T6 chain: ULR

[6] = FIG. 20, concentration series 50 nM-10 μM
[7] = concentration series 50 nM-10 μM, papain P13 1 nM (FIG. 20)

## CN(C(=O)CS)N(C)C(=O)CS [DMH, N,N-dimethyl-N,N′-bis(mercaptoacetyl)hydrazine]
Papain [1]
  papain activation rate compared to DTT: 32 times

## CN(C)C(=O)[C@H](S)CC[C@H](S)C(=O)N(C)C [DTA, meso-2,5-dimercapto-N,N,N,N-tetramethyladipamide]
Papain [1]
  papain activation rate compared to DTT: 4.5 times

## N[C@H](CS)CCS [DTBA (9), dithiobutylamine]
Latent papain; activator 50 nM, 1 μM TCEP
  rate relative to DTT: 13.6 times
Papain [1]
  papain activation rate compared to DTT: 14 times

## CCOC(=O)[C@@H](N)CS.Cl [L-cysteine ethyl ester, L-Cysteine ethyl ester hydrochloride]
Latent papain P13; [6]
  potency relative to (L-)cysteine: approximately 2.25 times
Latent papain; 50 pM-100 nM activator, 1 μM TCEP (FIG. 22)
  activator efficiency (normalized rate/rate blank), in words: no substantial rate increase

## N[C@@H](CS)C(=O)O [L-cysteine]
Latent papain P13; [7]
  normalized rate compared to cysteine ethyl ester: around 40%
  normalized rate compared to the tripeptide H2N-CLR-CONH2: around 25%
[2]
  redox potential E^0′: −0.233 V

## Cc1cc(=O)oc2cc(NC(=O)[C@H](CCCNC(=N)N)NC(=O)[C@H](Cc3ccccc3)NC(=O)OCc3ccccc3)ccc12 [Z-Phe-Arg-AMC, Z-Phe-Arg 7-amido-4-methylcoumarin] (Cbz-Phe-Arg-{AMC})
Papain [3]
  Km: 420 µM
  kcat: 52 s⁻¹

## N[C@@H](C[SeH])C(=O)O [selenocysteine]
Latent papain P13; [6]
  activator efficiency, in words: more potent activators compared to the tripeptide
Latent papain P13; concentration series 50 nM-10 μM (FIG. 20), selenocysteine prepared with TCEP
  rate relative to the tripeptide H2N-CLR-CONH2: 6.5 times
[2]
  redox potential E^0′: −0.488 V
[4]
  pKa: 5.2

B1: latent papain, reversibly inactivated with S-methyl methanethiosulfonate (-S-S-CH3) (protein)
chain: T1 sequence (P00784 134-345)
H2N-CFR-CONH2
  normalized ratio rate/rate 10 uM cysteine of substrate hydrolysis after reactivation of latent papain (1 nM), activator 10 uM (fold of the rate with L-cysteine): 2
H2N-CLR-CONH2
  normalized ratio rate/rate 10 uM cysteine of substrate hydrolysis after reactivation of latent papain (1 nM), activator 10 uM (fold of the rate with L-cysteine): 2
[5]
  normalized ratio rate/rate blank of substrate hydrolysis after reactivation of latent papain (1 nM) with activator 1-15 nM: The normalized reaction rates for papain P20 now appeared the highest of all papain forms
